Experimental data from US20040058948A1, “Mappicine analogs, methods of inhibiting retroviral reverse transcriptase and methods of treating retroviruses” (priority 2002, published 2004).
Where “and” joins values, the source holds several entries; their conditions need not be identical. Identical values can stand only once. Like-named read-outs stand apart in the source and are kept apart here.

How the values were obtained:
[1] = target: T1, RNase H activity of HIV reverse transcriptase (Human immunodeficiency virus type 1 group M subtype B, UniProt P04585); experiment: Fluorescence (FRET)-based RNase H activity assay of HIV reverse transcriptase; assay type: biochemical, HIV-1; design: final concentration of 2.5 nM of the p51/p66 RT heterodimer in the assay; made in house; details: for Residual activity (%) RNase H / remaining activity at 10 µM: 10 μM inhibitor concentration, activity with analog / without analog x 100; for remaining activity at 10 µM: read-out: Residual activity (%) RNase H; for IC50: read-out: IC50 (μM) against HIV RNase H in vitro
In short: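 p51/p66 HIV-1 RT (usually 2.5 nM) cleaving a 3′-fluorescein RNA/5′-DABCYL DNA hybrid (2.5 μM stock) in 50 mM Tris pH 8.0, 60 mM KCl, 2.5 mM MgCl2, 37 °C; fluorescence rise (ex 490/em 528 nm) read over 3–60 min. Mappicine analogs at 10 μM; % residual activity or % inhibition versus compound-free enzyme.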

[2] = target: T2, RNA-dependent DNA polymerase activity of HIV reverse transcriptase (Human immunodeficiency virus type 1 group M subtype B, UniProt P04585); experiment: RNA-dependent DNA polymerase activity assay of HIV reverse transcriptase; assay type: biochemical, HIV-1; details: 10 μM inhibitor concentration, activity with analog / without analog x 100; for remaining activity at 10 µM: read-out: Residual activity (%) Polymerase
T2 construct: made in house
In short: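 HIV reverse transcriptase RNA-dependent DNA polymerase activity measured with and without mappicine analogs at 10 μM final. Values are % residual activity: activity with compound divided by activity without, ×100.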

HIV-1 replication [3] = experiment: Cell culture viral growth assay (HIV-1 replication); assay type: cell-based
cells [4] = details: published compound, in words; cited from earlier work
HIV-1 replication [5] = details: published compounds, in words; cited from earlier work
[6] = target: T1, RNase H activity of HIV reverse transcriptase; details: read-out: IC50 RNase H inhibition; literature value (Borkow et al. 1997); cited from earlier work
cells [7] = details: published compounds, in words; cited from earlier work
[8] = Human immunodeficiency virus 1, read-out: EC50 (μM) against HIV-1 replication

Row | Compound | Residual activity (%) RNase H [1] | Residual activity (%) Polymerase [2] | other results
1 | COc1ccc2nc3c(c([Si](C)(C)C)c2c1)Cn1c-3cc(C(=O)CCC2CCCCC2)c(C)c1=O [5Dδκ] | 92% | 40% | 
2 | CCCCCCc1c2c(nc3ccccc13)-c1cc(C(=O)CC)c(C)c(=O)n1C2 [8Aακ] | 77% | 53% | 
3 | CCCCCCc1c2c(nc3ccccc13)-c1cc(C(O)C(C)(C)C)c(C)c(=O)n1C2 (centres unmarked) [8Aβ] | 91% | 103% | 
4 | CCCCCCc1c2c(nc3ccccc13)-c1cc(C(=O)C(C)(C)C)c(C)c(=O)n1C2 [8Aβκ] | 96% | 76% | 
5 | CCCCCCc1c2c(nc3ccccc13)-c1cc(C(O)CCC3CCCCC3)c(C)c(=O)n1C2 (centres unmarked) [8Aδ] | 89% | 72% | 
6 | CCCCCCc1c2c(nc3ccccc13)-c1cc(C(=O)CCC3CCCCC3)c(C)c(=O)n1C2 [8Aδκ] | 97% | 63% | 
7 | CCCCCCc1c2c(nc3ccccc13)-c1cc(C(=O)Cc3ccccc3)c(C)c(=O)n1C2 [8Aεκ] | 92% | 59% | 
8 | CCCCCCc1c2c(nc3ccc(F)cc13)-c1cc(C(O)CC)c(C)c(=O)n1C2 (centres unmarked) [8Bα] | 80% | 57% | 
9 | CCCCCCc1c2c(nc3ccc(F)cc13)-c1cc(C(=O)CC)c(C)c(=O)n1C2 [8Bακ] | 103% | 64% | 
10 | CCCCCCc1c2c(nc3ccc(F)cc13)-c1cc(C(=O)C(C)(C)C)c(C)c(=O)n1C2 [8Bβκ] | 81% | 44% | 
11 | CCCCCCc1c2c(nc3ccc(F)cc13)-c1cc(C(O)CCC3CCCCC3)c(C)c(=O)n1C2 (centres unmarked) [8Bδ] | 112% | 90% | 
12 | CCCCCCc1c2c(nc3ccc(F)cc13)-c1cc(C(=O)CCC3CCCCC3)c(C)c(=O)n1C2 [8Bδκ] | 95% | 80% | 
13 | CCCCCCc1c2c(nc3ccc(C)cc13)-c1cc(C(=O)CC)c(C)c(=O)n1C2 [8Cακ] | 92% | 31% | 
14 | CCCCCCc1c2c(nc3ccc(C)cc13)-c1cc(C(=O)C(C)(C)C)c(C)c(=O)n1C2 [8Cβκ] | 95% | 66% | 
15 | CCCCCCc1c2c(nc3ccc(C)cc13)-c1cc(C(O)CCC3CCCCC3)c(C)c(=O)n1C2 (centres unmarked) [8Cδ] | 72% | 73% | 
16 | CCCCCCc1c2c(nc3ccc(C)cc13)-c1cc(C(=O)CCC3CCCCC3)c(C)c(=O)n1C2 [8Cδκ] | 95% | 79% | 
17 | CCCCCCc1c2c(nc3ccc(C)cc13)-c1cc(C(=O)Cc3ccccc3)c(C)c(=O)n1C2 [8Cεκ] | 86% | 66% | 
18 | CCCCCCc1c2c(nc3ccc(OC)cc13)-c1cc(C(=O)CC)c(C)c(=O)n1C2 [8Dακ] |  |  | Residual activity (%) RNase H ([1]; 10 µM): 88% and 84%; Residual activity (%) Polymerase ([2]; 10 µM): 90% and 51%
19 | CCCCCCc1c2c(nc3ccc(OC)cc13)-c1cc(C(=O)CCC3CCCCC3)c(C)c(=O)n1C2 [8Dδκ] | 90% | 65% | 
20 | CCCCCCc1c2c(nc3ccc(OC)cc13)-c1cc(C(O)Cc3ccccc3)c(C)c(=O)n1C2 (centres unmarked) [8Dε] | 82% | 73% | 
21 | CCC(O)c1cc2n(c(=O)c1C)Cc1c-2nc2ccc(NC(=O)OC(C)(C)C)cc2c1[Si](C)(C)C (centres unmarked) [AG 2M, 2-tert-Butyloxycarbonylamino-7-(1-hydroxypropyl)-8-methyl-12-trimethylsilanyl-11H-indolizino[1,2-b]quinolin-9-one] |  |  | EC50 (HIV-1 replication [3]; [8]): ~5 µM; remaining activity at 10 µM [1]: 47%; IC50 [1]: < 10 µM and 8 µM; remaining activity at 10 µM [2]: 80%
22 | CCC(O)c1cc2n(c(=O)c1C)Cc1c-2nc2ccc(N)cc2c1[Si](C)(C)C (centres unmarked) [AG 3M, 2-Amino-7-(1-hydroxypropyl)-8-methyl-12-trimethylsilanyl-11H-indolizino[1,2-b]quinolin-9-one] |  |  | remaining activity at 10 µM [1]: 63%; remaining activity at 10 µM [2]: 123%
23 | CCc1c2c(nc3ccc(NC(=O)OC(C)(C)C)cc13)-c1cc(C(O)CC)c(C)c(=O)n1C2 (centres unmarked) [AG 5M, 2-tert-Butyloxycarbonylamino-12-ethyl-7-(1-hydroxypropyl)-8-methyl-11H-indolizino[1,2-b]quinolin-9-one] |  |  | remaining activity at 10 µM [1]: 68%; remaining activity at 10 µM [2]: 87%
24 | CCc1c2c(nc3ccc(N)cc13)-c1cc(C(O)CC)c(C)c(=O)n1C2 (centres unmarked) [AG 6M, 2-Amino-12-ethyl-7-(1-hydroxypropyl)-8-methyl-11H-indolizino[1,2-b]quinolin-9-one] |  |  | EC50 (HIV-1 replication [3]; [8]): ~5 µM; remaining activity at 10 µM [1]: 57%; IC50 [1]: < 10 µM and 10 µM; remaining activity at 10 µM [2]: 76%
25 | CCc1c2c(nc3ccc(OC(C)=O)cc13)-c1cc(C(O)CC)c(C)c(=O)n1C2 (centres unmarked) [AG 7M, 2-Acetoxy-12-ethyl-7-(1-hydroxypropyl)-8-methyl-11H-indolizino[1,2-b]quinolin-9-one] |  |  | remaining activity at 10 µM [1]: 63%; remaining activity at 10 µM [2]: 99%
26 | CCc1c2c(nc3ccc(O)cc13)-c1cc(C(O)CC)c(C)c(=O)n1C2 (centres unmarked) [AG 8M, 12-Ethyl-2-hydroxy-7-(1-hydroxypropyl)-8-methyl-11H-indolizino[1,2-b]quinolin-9-one] |  |  | remaining activity at 10 µM [1]: 87%; remaining activity at 10 µM [2]: 69%
27 | CC(C)(C)c1ccc(C(=O)NN=Cc2c(O)ccc3ccccc23)cc1 [BBNH, N-4-(t-butylbenzoyl)-2-hydroxy-1-napthaldehyde hydrazone] |  |  | toxicity to cells (cells [4]): highly toxic to cells at concentrations only slightly above those that inhibit virus replication; antiviral activity against HIV-1 replication in cultured cells (HIV-1 replication [5]): demonstrated antiviral activity against HIV-1 replication in cultured cells; IC50 [6]: ~2 µM; EC50 (HIV-1 replication [3]; Human immunodeficiency virus 1, cell culture viral growth assay, read-out: EC50 (μM) against HIV-1 replication): 1.5 µM; IC50 [1]: 1.8 µM
28 | O=C(O)C(=O)CC(=O)c1ccc(NC(=O)c2ccccc2)s1 [BTOBA, 4-[5-(benzoylamino)thien-2-yl]-2,4-dioxobutanoic acid] |  |  | antiviral activity against HIV-1 replication in cultured cells (HIV-1 replication [5]): cannot inhibit HIV-1 replication in cultured cells; ability to penetrate cells (cells [7]): Neither CPHM nor BTOBA are able to penetrate cells
29 | O=C(O)C(=NNc1ccc(Cl)cc1)C(=O)O [CPHM, 2-[(4-chlorophenyl)-hydrazono]-malonic acid] |  |  | antiviral activity against HIV-1 replication in cultured cells (HIV-1 replication [5]): cannot inhibit HIV-1 replication in cultured cells; ability to penetrate cells (cells [7]): Neither CPHM nor BTOBA are able to penetrate cells
